Laboratory results: patent publication US5277897A, “In vivo enhancement of cellular accumulation of lipophilic cationic organometallic compounds by reduction of intramembrane potential” (Brigham and Women's Hospital, priority 1992, dated 1994)

Experiments:
[1] = Effect of tetraphenylborate on the biodistribution of Tc-MIBI in rats (Table 2); type: in vivo; details: for Blood level / Heart uptake / Kidney uptake / Liver uptake / Lung uptake: 15 minutes; for tissue retention of Tc-MIBI, all tissues: 15 min
Experimental: The results are expressed as percent injected dose per gram of tissue. […] For this series of experiments, 50 microliters of dimethylsulfoxide lacking or containing 7.2 mM TPB were injected directly into the jugular vein of anesthetized rats immediately prior to the injection of Tc-MIBI (150 microliters; 100 microCuries per 200 microliters).
After 15 minutes, the animal was sacrificed by thoracotomy, organs extracted and placed in test tubes and counted for radioactivity in a standard well-type gamma counter. Tissue wet weights were obtained by subtracting fare weights from total weight of test tubes plus tissue.
Results are expressed as mean ±SEM of three determinations each.

[2] = tested on: cultured chick heart cells; assay: Ko-dependence of Tc-MIBI net uptake in the absence and presence of TPB (FIG. 5); type: cell-based; details: absence of TPB; more pronounced in presence of TPB
Experimental: FIG. 5. Ko -dependence of Tc-MIBI net uptake in the absence ( ) and presence (.quadrature.) of TPB (10^-5 M). Peak accumulation of Tc-MIBI was determined in preparations incubated in loading buffers containing the indicated Ko (equimolar replacement of NaCl by KCl) for 40 minutes (control) or for 20 minutes (+TPB). Ko -induced cell volume changes were prevented by addition of bumetanide (10^-5 M) to each buffer. Each point is the mean ±SEM of 3 determinations. Solid lines have no theoretical significance. The dashed line represents the Tc-MIBI content expected at each Ko assuming an intracellular/extracellular Tc-MIBI concentration ratio equal to the Ki /Ko ratio.
Monolayers of spontaneously contractile chick ventricular myocardial cells were obtained from disaggregated 10-day old chick embryo hearts by a slight modification of previously published methods (Horres, C. R., et al., In Pinson, A. (ed.), The Heart Cell in Culture, Boca Raton, CRC Press, pp. 77-108 (1987)). Hearts were trimmed of connective tissue and atria, finely minced and serially exposed to 0.024% (w/v) trypsin in Ca^2+ - and Mg^2+ - free Earle's salt solution for 7 minutes at 37° C. […] Cells were centrifuged at 400 g for 10 minutes, resuspended and combined in culture medium, counted with a hemocytometer and diluted to yield a suspension of 5×10^5 cells/ml. […]

[3] = diagnostic pharmaceutical; cited from earlier work

For `[C-]#[N+]CC(C)(C)OC.[C-]#[N+]CC(C)(C)OC.[C-]#[N+]CC(C)(C)OC.[C-]#[N+]CC(C)(C)OC.[C-]#[N+]CC(C)(C)OC.[C-]#[N+]CC(C)(C)OC.[Tc]` [Tc-MIBI, hexakis(methoxyisobutylisonitrile)technetium(I)], which Blood level ([1]; +TPB) is on record?
The Blood level was 0.06 ± 0.01 % ID/gm.

What about the Heart uptake ([1]; +TPB) of the same compound?
The Heart uptake was 1.45 ± 0.11 % ID/gm.

What about the Kidney uptake ([1]; +TPB) of the same compound?
Its Kidney uptake is 5.81 ± 0.74 % ID/gm.

What about the Liver uptake ([1]; +TPB) of the same compound?
Its Liver uptake is 0.76 ± 0.40 % ID/gm.

What about the Lung uptake ([1]; +TPB) of the same compound?
Its Lung uptake is 1.07 ± 0.15 % ID/gm.

And the “tissue retention of Tc-MIBI, all tissues” value ([1]; +TPB)?
The value was 9.15 % ID per gram of total tissue.

And the Blood level ([1]; -TPB)?
The Blood level was 0.04 ± 0.01 % ID/gm.

What about the Heart uptake ([1]; -TPB) of the same compound?
Its Heart uptake is 1.92 ± 0.51 % ID/gm.

And the Kidney uptake ([1]; -TPB)?
The Kidney uptake was 3.38 ± 1.09 % ID/gm.

And the Liver uptake ([1]; -TPB)?
The Liver uptake was 0.25 ± 0.15 % ID/gm.

And the Lung uptake ([1]; -TPB)?
Its Lung uptake is 0.45 ± 0.09 % ID/gm.

What about the “tissue retention of Tc-MIBI, all tissues” value ([1]; -TPB) of the same compound?
Its value is 6.04 % ID per gram of total tissue.

And the “nominal intracellular/extracellular accumulation ratio vs Ki/Ko ratio” value [2]?
The value was “greater than those expected from the Ki /Ko ratios in the absence of TPB”.

What about the safety in humans [3] of the same compound?
The safety in humans was “shown to be safe in humans as a diagnostic pharmaceutical”.
